Data on one compound can be found in patent US11298390B2, “Total flavonoids extract of Gynura formosana Kitam., preparation method therefor and use thereof for treating hyperuricemia” (ZHANGZHOU PIEN TZE HUANG PHARMACEUTICAL CO., LTD., priority 2017, dated 2022).

Experiment [1] has as its system mouse model of hyperuricemia. The experiment in a line: Uric acid level in serum of hyperuricemia model mice. The class given is in vivo, Kunming mice. The conditions noted are these: xanthine i.p. hyperuricemia mice, dose 0.0002 g/10 g, once daily 11 days, mean ± SD. As for the experimental part:
(§1) The mouse model of hyperuricemia was established by intraperitoneal injection of xanthine to increase the content of uric acid precursor in the body and thus to increase the generation of uric acid. The mouse model of hyperuricemia was administered via gavage with the total flavonoid extract from Gynura formosana Kitam. The inhibition rates of uric acid and […] in serum of the mouse and the inhibition rate of the activity of xanthine oxidase in the liver of the mouse were recorded to study the effect of the total flavonoid extract on symptoms of gout caused by hyperuricemia.
(§2) The high, medium and low dose groups of the total flavonoid extract were administered via gavage with an aqueous solution of total flavonoid extract from Gynura formosana Kitam. at a dose of 24 mg/10 mL, 12 mg/10 mL, 6 mg/10 mL, respectively. The model group was administered an equal-volume of saline. All of the drugs were administered once daily for continuous 11 days.
(§3) After 1 hour at last administration, the mice received 10% xanthine dissolved in 0.8% CMC-Na via intraperitoneal injection. After 0.5 hours of modeling, the mice were sacrificed and blood was taken from eyeballs. Then the mice were dissected immediately and livers were taken and stored at a low temperature. […]
(§4) The index was calculated by referring to the instructions. […]

Experiment [2] deals with mouse model of hyperuricemia. The experiment in a line: Creatinine level in serum of hyperuricemia model mice. The class given is in vivo, Kunming mice. The conditions noted are these: dose 0.0002 g/10 g, once daily 11 days, mean ± SD. As for the experimental part:
as §1, §2, §3, §4

As to `Oc1ncnc2[nH]ncc12` [allopurinol], in experiment [1], the “Uric Acid” value was determined as 22.71 ± 0.27 mg/L. The compound also registered a Creatinine in experiment [2] of 23 ± 1 µM.
